Converted amounts (≈) assume the structure as drawn.
Columns and labels:
Staphylococcus aureus = assay: Antibacterial activity against Staphylococcus aureus; type: functional
Micrococcus luteus = assay: Antibacterial activity against Micrococcus luteus; type: functional
Bacillus subtilis = assay: Antibacterial activity against Bacillus subtilis; type: functional
Aspergillus niger = assay: Antifungal activity against Aspergillus niger; type: functional, organism-based
Cryptococcus neoformans = assay: Antifungal activity against Cryptococcus neoformans; type: functional, organism-based
Escherichia coli = assay: Antibacterial activity against Escherichia coli; type: functional
Candida albicans = assay: Antifungal activity against Candida albicans; type: functional, organism-based
[1] = tested on: Trichophyton mentagrophytes; assay: Antifungal activity against Trichophyton mentagrophytes; type: functional, organism-based

| MIC (Staphylococcus aureus) [µg/mL] | MIC (Micrococcus luteus) [µg/mL] | MIC (Bacillus subtilis) [µg/mL] | IC50 (Aspergillus niger) [µg/mL] | IC50 (Cryptococcus neoformans) [µg/mL] | MIC (Escherichia coli) [µg/mL] | IC50 (Candida albicans) [µg/mL] | IC50 [1] [µg/mL] | Compound |
| --- | --- | --- | --- | --- | --- | --- | --- | --- |
| > 32 | > 32 | > 32 | 32 (≈ 66.5 µM) | 16 (≈ 33.3 µM) | > 32 | > 32 | > 32 | NCCCOc1c(Br)cc(C/C(=N\O)C(=O)NCCC(=O)O)cc1Br |
| > 32 | > 32 | > 32 | 32 | > 32 | > 32 | > 32 | > 32 | O=C(O)/C(Cc1cc(Br)c(OCCC[n+]2ccccc2)c(Br)c1)=N/O |
